Results on five compounds are retold here after PMC5717258, “Bioaccumulation of pharmaceuticals and personal care product chemicals in fish exposed to wastewater effluent in an urban wetland” (Scientific Reports, 2017).

SMILES strings stand for the structures. Read-outs that look alike come from different tables or passages of the source.

One data set can be described thus: in vivo. To be noted: for concentration at 21 days: goldfish (Carassius auratus), in vivo. The gist of the method: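 Pooled caged-goldfish plasma, wild-fish plasma (2.3–2.5 g) and water samples were spiked with isotope-labelled surrogates, then extracted (acetonitrile sonication for plasma; pH-adjusted water) and cleaned up by HLB SPE. PPCPs were quantified by LC/ESI-MS/MS using isotope dilution. Non-detects were set to ½ DL when the analyte was detected in ≥2 samples.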

For data set [1] the following is noted: for plasma concentration, CPM-C 01: Cootes carp 01, 2011, male; for plasma concentration, CPM-C 2: Cootes carp 2, Sep 27, 2011, male; for plasma concentration, CPM-C 10: Cootes carp 10, Sep 28, 2011, female; for plasma concentration, CPM-C 20: Cootes carp 20, 2011, male; for plasma concentration, JH-C 54: Jordan Harbour carp 54, Nov 7, 2011, male; for plasma concentration, JH-C 73: Jordan Harbour carp 73, Nov 7, 2011, female; for plasma concentration, JH-C 74: Jordan Harbour carp 74, Nov 7, 2011, male; for plasma concentration, JH-C 75: Jordan Harbour carp 75, Nov 7, 2011, female; for plasma concentration, JH-C 78: Jordan Harbour carp 78, Nov 7, 2011, male; for plasma concentration, JH-C 82: Jordan Harbour carp 82, Nov 7, 2011, female.

The conditions of data set [2]: Jordan Harbour brown bullhead, wet weight. The method, then:
Plasma from 9 individual male fish (500 µL/individual) was pooled to yield 3 samples for PPCP analysis. […] Plasma from 6 individual carp (2.3–3.5 g) from each location was selected for PPCP analysis. […] Plasma samples were frozen (−80 °C) until analysis.
A total of 20 fish plasma samples from the pooled caged fish (7) and the wild fish (13) along with 12 water samples were selected for analysis. […] A full list of analytes is provided in Supplementary Information. Mass labelled^13C-, or deuterated surrogate internal standards were used for quantification of all analytes via the isotope dilution/surrogate standard quantitation method. Prior to extraction and/or clean-up procedures, aqueous samples were adjusted to pH 2.0, spiked with extraction surrogate standards, then adjusted to pH 4 using tetrasodium ethylenediamine-tetraacetate dihydrate. Plasma samples (2.3–2.5 g) were spiked with extraction surrogate standards, sonicated with 20 mL acetonitrile, then diluted with ultra-pure water to 200 mL. The extracts were cleaned up by solid phase extraction using Oasis HLB cartridges (Waters Ltd. Mississauga ON), filtered, and analyzed by liquid chromatography-electrospray ionization-tandem mass spectrometry (LC/ESI-MS/MS) in positive or negative ionization mode. The analysis of the complete list of analytes (SI Table S1) required a total of five instrumental runs.

Data set [3] can be described thus: Plasma bioaccumulation factor (BAFP), goldfish. The data set is classed as in vivo, goldfish (Carassius auratus). As to conditions: for BAFP, CPM2 goldfish caged: water sample of August 2012. In a few lines: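 BAFP in goldfish was calculated as plasma concentration (ng/g × 1000) divided by water concentration (ng/L).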
Data set [4] can be described thus: Plasma bioaccumulation factor (BAFP), carp. The format is in vivo, carp (Cyprinus carpio). The protocol: Bioaccumulation factor (BAFP) was calculated as concentration in fish plasma (ng/g × 1000) divided by concentration in water (ng/L). Two widely used modeling approaches for predicting organic contaminant bioaccumulation were assessed: the BCF-BAF model for whole body BAFs[53] and the fish-plasma concentration calculation of Huggett et al.[35] modified by Berninger et al.[54]. The latter involves estimating an octanol-water partition coefficient (Kow) adjusted for fraction ionized (log D), using the pKa value to adjust log Kow[54] taking into account the pH of CPM waters. Further information on the calculation of log D, blood-water partitioning (PBW), and plasma concentrations (FPC) is given in the SI.

Details of data set [5]: method as in US EPA Chemistry Dashboard. To be noted: ref US EPA Chemistry Dashboard; cited from earlier work.
For data set [6] the following is noted: cited from earlier work.
For data set [7] the following is noted: cited from earlier work; for Salmon (whole body) concentration: Table S7, ref Meador et al. (2016); for whole fish concentration, salmon: ref Meador et al. 18.
For data set [8] the following is noted: cited from earlier work; for Sculpin (whole body) concentration: Table S7, ref Meador et al. (2016); for whole fish concentration, sculpin: ref Meador et al. 18.
For data set [9] the following is noted: cited from earlier work. This is another data set of the same source.
The conditions of data set [10]: cited from earlier work; for BAFP: treated WWTP effluent from two Swedish cities.
The conditions of data set [11]: cited from earlier work. This is another data set of the same source.
Where [12] appears, read: conc in fish plasma/conc in water.
Setting [13] is: range based on range of plasma concentrations.
[14] abbreviates: male, goldfish (Carassius auratus), in vivo.

Take `CCN(CC)C(=O)c1cccc(C)c1` [DEET, N,N-Diethyl-m-toluamide]: the “plasma concentration, CPM1 caged” value in the data set “in vivo” (CPM1, 07-2014, pooled plasma, wet weight) is 0.416 ng/g. Also, the “plasma concentration, CPM2 caged” value in “in vivo” (CPM2, 07-2014, pooled plasma, wet weight) is on record as 0.41 ng/g. In addition, the “plasma concentration, CPM3 caged” value in the data set “in vivo” (CPM3, 07-2014, pooled plasma, wet weight) turned out to be 0.314 ng/g. In addition, in the data set “in vivo” (Cootes Paradise Marsh, range), the “caged goldfish plasma, range of concentrations” value lay within 0.23 to 0.58 ng/g. For the same compound, the “plasma concentration, JH caged” value in the data set “in vivo” (Jordan Harbour reference site, 07-2014, pooled plasma, wet weight) amounted to 0.235 ng/g. Also, in [1] (Cootes Paradise Marsh, range), the “Cootes carp plasma, range of concentrations” value fell in the range of 0.19 to 1.15 ng/g and the “wild goldfish plasma, range of concentrations” value is 0.31 to 0.42 ng/g. Besides, in data set [1] (wet weight), the “plasma concentration, CPM-C 01” value was 0.194 ng/g; the “plasma concentration, CPM-C 2” value amounted to 1.09 ng/g; the “plasma concentration, CPM-C 10” value was 1.15 ng/g; the “plasma concentration, CPM-C 20” value is 0.35 ng/g. Also, in data set [1] (wet weight), the “plasma concentration, JH-C 54” value stood at 0.331 ng/g; the “plasma concentration, JH-C 73” value is given as 0.083 ng/g; the “plasma concentration, JH-C 74” value was found to be 0.494 ng/g; the “plasma concentration, JH-C 75” value is on record as 0.914 ng/g. In [1] (wet weight), the “plasma concentration, JH-C 78” value is reported as 1.09 ng/g and the “plasma concentration, JH-C 82” value was found to be 0.865 ng/g. In addition, the “plasma concentration, CPM-C 13” value in data set [1] (Cootes carp 13, Sep 28, 2011, female, wet weight) came out at 1.1 ng/g. The “plasma concentration, CPM-C 36” value in data set [1] (Cootes carp 36, Oct 3, 2011, female, wet weight) is on record as 0.743 ng/g. The “plasma concentration, fold higher in carp plasma than in goldfish” value in [1] (Jordan Harbour, carp vs caged goldfish) is reported as “about 2 fold”. For the same compound, in [1] (Table S7), the “Carp plasma concentration, this study (range)” value was 0.19 to 1.15 ng/g and the “Goldfish plasma concentration, this study (range)” value fell in the range of 0.23 to 0.58 ng/g. Besides, in [1] (Table S8), the “plasma concentration, carp, this study (mean)” value is given as 0.77 ng/g wet weight or ng/mL for plasma and the “plasma concentration, goldfish, this study (mean)” value is 0.46 ng/g wet weight or ng/mL for plasma. Further, the “plasma concentration, CPM wild-01” value in data set [1] (wild goldfish sample 01, 2012, wet weight) was 0.234 ng/g. The “plasma concentration, CPM wild-02” value in data set [1] (wild goldfish sample 02, 2012, wet weight) amounted to 0.584 ng/g. Besides, in [1] (wild goldfish sample 03, 2012, wet weight), the “plasma concentration, CPM wild-03” value is given as 0.56 ng/g. For the same compound, the “plasma concentration, JH-BB” value in [2] was 2.59 ng/g. Further, in data set [3], the “BAFP, CPM1 goldfish caged” value turned out to be 4 L/kg and the “BAFP, CPM2 goldfish caged” value worked out at 4 L/kg. Also, the “BAFP, CPM3 goldfish caged” value in data set [3] (CPM3) is reported as 4 L/kg. Moreover, in data set [3] (Jordan Harbour), the “BAFP, JH goldfish caged” value worked out at 9 L/kg. For the same compound, the “BAFP at CPM3, wild goldfish, average” value in data set [3] (setting [12]) was determined as 9 L/kg. In addition, the “BAFP at CPM3, wild goldfish, range” value in data set [3] (setting [13]) lay in the range of 4 to 11 L/kg. For the same compound, in data set [4] (Jordan Harbour), the “BAFP at JH, carp, average” value amounted to 32 L/kg and the “BAFP at JH, carp, range” value lay in the range of 4 to 51 L/kg. Further, the “BAFP at CPM3, carp, average” value in [4] (setting [12]) was 15 L/kg. The “BAFP at CPM3, carp, range” value in [4] (setting [13]) lay in the range of 4 to 22 L/kg. Also, in [5], the “log Kow” value is recorded as 2.18. The “BAFP in carp plasma, median” value in [6] was less than 6.2. For the same compound, in data set [7], the “Salmon (whole body) concentration” value is 0.39 to 1.6 ng/g and the “whole fish concentration, salmon” value is 0.39 - 1.6 ng/g wet weight or ng/mL for plasma. Besides, in [8], the “Sculpin (whole body) concentration” value is 0.41 to 2.2 ng/g and the “whole fish concentration, sculpin” value is 0.41 - 2.2 ng/g wet weight or ng/mL for plasma.

Consider `CN[C@H]1CC[C@@H](c2ccc(Cl)c(Cl)c2)c2ccccc21` [Sertraline], for which, in data set [3], the “BAFP, CPM1 goldfish caged” value worked out at 50 L/kg and the “BAFP, CPM2 goldfish caged” value was 27 L/kg. The “log Kow” value in data set [5] is recorded as 5.29. Also, the “BAFP in carp plasma, median” value in [6] is 8.9. The “plasma concentration, crucian carp & common carp” value in data set [6] (mean ± SD, ref Tanoue et al.16) was 0.21±0.18 ng/g wet weight or ng/mL for plasma. The “Therapeutic "normal" blood-plasma/serum concentration” value in [9] (human, converted from µg/mL, ref Schulz et al.[56]) is 50 to 250 ng/mL. Moreover, the “toxic dose (toxic blood-plasma/serum concentration)” value in data set [9] (human, ref Schulz et al.[56]) is reported as 290 ng/mL. Further, in data set [9] (ref Berninger & Brooks[60]), the “Cmax (human therapeutic dose)” value was 290 ng/mL. Besides, the “plasma concentration, rainbow trout” value in data set [10] (ref Fick et al. 12) is given as 0.30-2.4 ng/g wet weight or ng/mL for plasma. In addition, in [7], the “Salmon (whole body) concentration” value is listed as 17 ng/g and the “whole fish concentration, salmon” value is on record as 17 ng/g wet weight or ng/mL for plasma. Moreover, in data set [8], the “Sculpin (whole body) concentration” value is 0.2 ng/g and the “whole fish concentration, sculpin” value is given as 0.2 ng/g wet weight or ng/mL for plasma.

With `CC(C)Cc1ccc(C(C)C(=O)O)cc1` (stereo not drawn) [Ibuprofen], in [1] (wet weight), the “plasma concentration, CPM-C 01” value is listed as less than 3.16 ng/g; the “plasma concentration, CPM-C 2” value is listed as less than 4.31 ng/g; the “plasma concentration, CPM-C 10” value is less than 4.53 ng/g; the “plasma concentration, CPM-C 20” value was less than 3.23 ng/g. Also, in data set [1] (wet weight), the “plasma concentration, JH-C 54” value is reported as less than 3.18 ng/g; the “plasma concentration, JH-C 73” value was less than 3.09 ng/g; the “plasma concentration, JH-C 74” value was less than 3.19 ng/g; the “plasma concentration, JH-C 75” value was less than 4.52 ng/g. Moreover, in [1] (wet weight), the “plasma concentration, JH-C 78” value is given as less than 3.13 ng/g and the “plasma concentration, JH-C 82” value is given as less than 3.01 ng/g. Further, the “plasma concentration, JH-BB” value in data set [2] is on record as less than 5.7 ng/g. Also, the BAFP in data set [10] is given as 21–58.

On to `O=C1Nc2ccc(Cl)cc2C(c2ccccc2)=NC1O` (stereo not drawn) [Oxazepam], for which the BAFP in [10] is on record as 0.7–3.6.

Turning to `Cc1cc(C)nc(NS(=O)(=O)c2ccc(N)cc2)n1` [Sulfamethazine], the concentration at 21 days is 0.06 to 0.17 ng/g in “in vivo” (caged goldfish plasma, range of concentrations); less than 0.244 ng/g in the data set “in vivo” (plasma concentration, CPM1 caged); less than 0.165 ng/g in “in vivo” (plasma concentration, CPM2 caged); less than 0.123 ng/g in the data set “in vivo” (plasma concentration, CPM3 caged); less than 0.12 ng/g in “in vivo” (plasma concentration, JH caged). In addition, in [1] (in vivo), the “plasma concentration, carp, this study (mean)” value was “< mdl”. In data set [1] (setting [14]), the “plasma concentration, CPM wild-01” value turned out to be 0.166 ng/g. Further, in data set [1] (setting [14]), the “plasma concentration, CPM wild-02” value was 0.084 ng/g. The “plasma concentration, CPM wild-03” value in data set [1] (setting [14]) amounted to 0.066 ng/g. Besides, the “plasma concentration, goldfish, this study (mean)” value in data set [1] (setting [14]) is given as 0.11 ng/g wet weight or ng/mL for plasma. Also, the “log BAFP, goldfish and carp in this study” value in [3] (goldfish and carp) is listed as 1.53–2.73. Further, the “log Kow” value in [5] is on record as 0.19. Further, the “plasma concentration, carp and tilapia” value in data set [11] (ref Zhao et al. 15) was 6.47 ng/g wet weight or ng/mL for plasma. Besides, the “log BAFP” value in [11] (tilapia and carp species in southern China) is on record as 1.92–4.18.
